Data on seven compounds can be found in patent publication US11480583B2, “Method for the diagnosis and treatment of essential primary hypertension” (Universiteit Maastricht, priority 2020, dated 2022).

The test system of assay [1] is femoral arteries of aged NOX5 KI and WT mice. The assay can be described thus: Wire myograph, relaxing responses of isolated femoral arteries. Set-up: species or system mouse. The conditions noted are these: for Relaxation induced by BAY 60-2770, WT versus KI / Endothelium-independent relaxation induced by PAPA/NO, WT versus KI: femoral arteries, 0.01-10 μM; for Reversal of impaired Ach-induced relaxation by antioxidant: femoral arteries of aged KI mice contracted with 10 μM phenylephrine, Ach 10 μM. The protocol: After mice were sacrificed, thoracic aortae, femoral and saphenous arteries were dissected free from perivascular adipose tissue and mounted in a wire myograph (DMT, Aarhus, DK). The organ chamber was filled with Krebs-Ringer bicarbonate-buffered salt solution (KRB) that was continuously aerated with 95% O2/5% CO2 and maintained at 37° C. Passive stretch procedure was performed to mimic the physiologically relevant internal lumen diameter as previously described. Arterial contractile and relaxing responses were recorded at lumen diameters corresponding to a distending pressure of 100 mmHg in thoracic aorta and femoral artery and at 90% of this diameter in the resistance-sized saphenous artery. […] The diameter tension relationships were constructed according to the law of Laplace for a cylindrical tube: P=T/R (with P for transmural pressure, T for wall tension and R for the lumen radius of the tube). Consequently, wall stiffness can be determined equally by recording 1) changes in tension in response to imposed changes in radius (wire myography) or 2) changes in radius in response to changes in transmural pressure (pressure myography). Here we used the former approach because it has a higher throughput than the latter. Stress-strain relationships and even better “incremental elastic (Young's) modulus” (which require additional recording of wall thickness) only come into play to discriminate between structural and material property contributions to changes in arterial stiffness. Part of the isolated thoracic aorta was studied in the absence and part in the continuous presence of 10 μM indomethacin to inhibit production of prostaglandins that can act as endothelium-derived vasoactive factors in this vessel. The vessels were tested for their contractile response to 40 mM K+, concentration-response curves of phenylephrine (0.01 to 100 μM) and endothelin-1 (1-256 nM) followed by acetylcholine (Ach) (0.01 to 100 μM), PAPA/NO (0.01-10 μM) or Bay60-2770 (0.01-10 μM)-induced relaxations. The wall tension of the vessel segment was continuously recorded with LabChart Pro (ADInstruments, Oxford, UK).

Assay [2] relates to thoracic aortae of aged NOX5 KI and WT mice. In words: Wire myograph, responses of isolated thoracic aortae. Set-up: species or system mouse. The conditions noted are these: for Endothelium-independent relaxation induced by PAPA/NO, WT versus KI: thoracic aortae with/without indomethacin, 0.01-10 μM. Here is the method: (§1) After mice were sacrificed, thoracic aortae, femoral and saphenous arteries were dissected free from perivascular adipose tissue and mounted in a wire myograph (DMT, Aarhus, DK). The organ chamber was filled with Krebs-Ringer bicarbonate-buffered salt solution (KRB) that was continuously aerated with 95% O2/5% CO2 and maintained at 37° C. Passive stretch procedure was performed to mimic the physiologically relevant internal lumen diameter as previously described. Arterial contractile and relaxing responses were recorded at lumen diameters corresponding to a distending pressure of 100 mmHg in thoracic aorta and femoral artery and at 90% of this diameter in the resistance-sized saphenous artery. […] The diameter tension relationships were constructed according to the law of Laplace for a cylindrical tube: P=T/R (with P for transmural pressure, T for wall tension and R for the lumen radius of the tube). Consequently, wall stiffness can be determined equally by recording 1) changes in tension in response to imposed changes in radius (wire myography) or 2) changes in radius in response to changes in transmural pressure (pressure myography). Here we used the former approach because it has a higher throughput than the latter. Stress-strain relationships and even better “incremental elastic (Young's) modulus” (which require additional recording of wall thickness) only come into play to discriminate between structural and material property contributions to changes in arterial stiffness. Part of the isolated thoracic aorta was studied in the absence and part in the continuous presence of 10 μM indomethacin to inhibit production of prostaglandins that can act as endothelium-derived vasoactive factors in this vessel. […] The wall tension of the vessel segment was continuously recorded with LabChart Pro (ADInstruments, Oxford, UK).

The subject of assay [3] is saphenous arteries of aged NOX5 KI and WT mice. In words: Wire myograph, relaxing responses of isolated saphenous arteries. On the set-up: species or system mouse. The settings on record: for Endothelium-independent relaxation induced by PAPA/NO, WT versus KI: saphenous arteries, 0.01-10 μM. Here is the method: as §1
The test system of assay [4] is femoral arteries of aged NOX5 KI mice. In words: Superoxide formation, DHE staining of femoral artery cryo-sections. Set-up: species or system mouse. The conditions noted are these: pre-treatment with 500 μM L-NAME for 30 min at 37° C. The protocol: Superoxide was measured in femoral arteries using the florescence dye dihydroethidium (DHE) (Thermo Scientific Technology, The Netherlands). Frozen femoral arteries cryo-sections were fixated in 4% paraformaldehyde (PFA) in PBS and then incubated with 2 μM DHE for 30 minutes at 37° C. After three washing steps with PBS, slices were incubated with DAPI (Sigma-Aldrich, The Netherlands) […] for 10 min. Sections were washed in PBS and then mounted using a Dako Fluorescence Mounting Medium ([…], Agilent Technologies). Immunofluorescent signals were viewed using a Leica DM13000 B fluorescence microscope. Some arteries were pre-treated with 500 μM L-NAME for 30 min at 37° C. before performing the DHE staining.

A further assay concerns elevated blood pressure. The settings on record: by improving endothelial function; cited from earlier work.
Assay [5] deals with elevated blood pressure induced by NOS uncoupling. The settings on record: cited from earlier work.

“Also recorded” adds a separate entry of the source.

For `O=C(O)CCCCN(CCc1cc(F)ccc1OCc1ccc(-c2ccc(C(F)(F)F)cc2)cc1)Cc1ccc(C(=O)O)cc1` [BAY 60-2770], the “Relaxation induced by BAY 60-2770, WT versus KI” value was “Neither the PAPA/NO (FIGS. 13 A-C) nor the BAY 60-2770 response (FIG. 11 D) differed between WT and KI mice” in assay [1]; “did not differ” in assay [1] (listed as Bay60-2770).

As for `COC(=O)[C@@H](N)CCCNC(=N)N[N+](=O)[O-]` [L-NAME], the “Effect of L-NAME on Ach-induced relaxation” value in assay [1] (femoral arteries of aged KI and WT mice contracted with 256 nM endothelin-1, 100 μM L-NAME) is recorded as “reversed”; in assay [2] (thoracic aortae of aged KI and WT mice contracted with 256 nM endothelin-1, 100 μM L-NAME) it was “reversed”; in assay [3] (saphenous arteries of aged KI and WT mice contracted with endothelin-1, 100 μM L-NAME) it was “did not modify the relaxing effects of Ach”. The “Superoxide formation (DHE staining), increase in KI versus WT” value in assay [4] was “inhibited”.

In the case of `CC(=O)N[C@@H](CS)C(=O)O` [N-acetylcysteine], the “Reversal of impaired Ach-induced relaxation by antioxidant” value in assay [1] (10 μM N-acetylcysteine) is “not reversed”.

For `CCCN(CCCN)/[N+]([O-])=N/O` [PAPA/NO], the “Endothelium-independent relaxation induced by PAPA/NO, WT versus KI” value was “Neither the PAPA/NO (FIGS. 13 A-C) nor the BAY 60-2770 response (FIG. 11 D) differed between WT and KI mice” in assay [1]; “did not differ” in assay [1] (listed as PAPA NO); “Neither the PAPA/NO (FIGS. 13 A-C) nor the BAY 60-2770 response (FIG. 11 D) differed between WT and KI mice” in assay [2]; “did not differ” in assay [2] (listed as PAPA NO); “Neither the PAPA/NO (FIGS. 13 A-C) nor the BAY 60-2770 response (FIG. 11 D) differed between WT and KI mice” in assay [3]; “did not differ” in assay [3] (listed as PAPA NO).

On to `Nc1nc2ncc(CNc3ccc(C(=O)N[C@@H](CCC(=O)O)C(=O)O)cc3)nc2c(=O)[nH]1` [folic acid], for which the “Reduction of elevated blood pressure, clinical” value in the assay on elevated blood pressure is recorded as “clinically effective to reduce elevated blood pressure”.

As for `C[C@H](O)C(=O)C1=Nc2c(nc(N)[nH]c2=O)NC1` [sepiapterin], the “Ach-induced relaxation after pre-treatment with sepiapterin” value in assay [1] (femoral arteries of aged KI mice pre-contracted with phenylephrine, sepiapterin 100 μM, compared with WT) was “improved relaxation in KI; also recorded: greatly improved and became indistinguishable from those in WT”. In assay [5], the “Blood pressure lowering, preclinical” value is given as “lower elevated blood pressure induced by NOS uncoupling”.

With `CC1(C)CC(O)CC(C)(C)N1[O]` [tempol], the “Reversal of impaired Ach-induced relaxation by antioxidant” value in assay [1] (100 μM tempol) is “not reversed”.
